Results taken from patent US9790215B2 (FLATLEY DISCOVERY LAB, LLC, priority 2013, dated 2017).
pEC50: −log10 of the molar value.

Molecular target: T1, human ΔF508-CFTR (Homo sapiens, UniProt P13569, DEL508-508)
T1 construct: expressed in transfected cells
Assay: CFTR-YFP High Throughput Assay (YFP halide flux in FRT cells)
Format: cell-based
Details: FRT cells expressing human ΔF508-CFTR and YFP; forskolin stimulated
Procedure, shortened: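 FRT cells stably co-expressing human ΔF508-CFTR and halide-sensitive YFP-H148Q/I152L were treated with compound […] for 24–26 h at 37 °C (corrector mode), washed, then stimulated with 20 μM forskolin plus 30 μM potentiator P3 for 60–120 min at room temperature. Iodide-induced YFP quench (ex 500/em 540 nm) rates came from least-squares fitting.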

T1 sequence (P13569 with tags, fused parts or gaps DEL508-508): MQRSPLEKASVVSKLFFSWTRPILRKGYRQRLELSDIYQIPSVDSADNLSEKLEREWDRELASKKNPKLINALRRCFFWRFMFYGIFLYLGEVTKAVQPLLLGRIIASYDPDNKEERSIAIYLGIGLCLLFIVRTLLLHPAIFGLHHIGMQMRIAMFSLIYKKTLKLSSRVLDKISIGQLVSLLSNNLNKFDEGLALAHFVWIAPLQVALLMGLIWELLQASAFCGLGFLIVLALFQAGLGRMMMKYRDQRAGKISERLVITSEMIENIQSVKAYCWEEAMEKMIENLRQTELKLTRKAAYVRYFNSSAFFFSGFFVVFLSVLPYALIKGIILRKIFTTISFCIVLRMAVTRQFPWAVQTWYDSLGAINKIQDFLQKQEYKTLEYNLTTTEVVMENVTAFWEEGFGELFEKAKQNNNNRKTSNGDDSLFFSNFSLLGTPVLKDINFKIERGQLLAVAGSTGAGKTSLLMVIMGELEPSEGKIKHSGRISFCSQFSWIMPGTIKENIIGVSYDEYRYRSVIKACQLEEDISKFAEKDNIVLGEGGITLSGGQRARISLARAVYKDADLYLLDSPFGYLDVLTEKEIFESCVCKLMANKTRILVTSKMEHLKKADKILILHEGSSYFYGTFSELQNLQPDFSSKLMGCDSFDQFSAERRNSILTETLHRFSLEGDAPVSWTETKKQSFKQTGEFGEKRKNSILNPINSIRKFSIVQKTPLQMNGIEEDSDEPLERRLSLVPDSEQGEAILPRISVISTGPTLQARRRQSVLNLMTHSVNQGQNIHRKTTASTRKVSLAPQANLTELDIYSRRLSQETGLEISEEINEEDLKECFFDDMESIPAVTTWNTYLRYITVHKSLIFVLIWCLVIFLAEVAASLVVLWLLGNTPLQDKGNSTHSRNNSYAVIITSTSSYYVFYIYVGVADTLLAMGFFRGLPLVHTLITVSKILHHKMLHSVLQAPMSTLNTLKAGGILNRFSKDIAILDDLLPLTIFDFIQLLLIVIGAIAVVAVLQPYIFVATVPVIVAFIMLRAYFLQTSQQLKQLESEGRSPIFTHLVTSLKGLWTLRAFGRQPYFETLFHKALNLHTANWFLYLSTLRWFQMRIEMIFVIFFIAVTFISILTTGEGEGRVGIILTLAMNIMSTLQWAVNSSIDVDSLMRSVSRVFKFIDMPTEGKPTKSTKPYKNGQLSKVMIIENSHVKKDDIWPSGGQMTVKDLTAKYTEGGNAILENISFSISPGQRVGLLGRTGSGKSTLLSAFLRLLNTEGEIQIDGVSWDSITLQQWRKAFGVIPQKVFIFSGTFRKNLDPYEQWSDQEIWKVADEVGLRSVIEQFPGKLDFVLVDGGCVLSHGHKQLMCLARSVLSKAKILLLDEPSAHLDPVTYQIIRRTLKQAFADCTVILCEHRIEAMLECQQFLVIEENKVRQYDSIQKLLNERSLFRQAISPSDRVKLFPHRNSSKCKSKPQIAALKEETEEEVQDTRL

Row | Structure (SMILES) | pEC50
1 | CCN(C(=O)Cn1ncc2c(c1=O)c1ccccc1n2Cc1ccccn1)c1ccc2c(c1)OC(F)(F)O2 [Example 85, N-(2,2-difluorobenzo[d][1,3]dioxol-5-yl)-N-ethyl-2-(1-oxo-5-(pyridin-2-ylmethyl)-1H-pyridazino[4,5-b]indol-2(5H)-yl)acetamide] | 4.70 to 5.00
2 | CCN(C(=O)Cn1ncc2c(c1=O)c1ccccc1n2CCOC)c1ccc2c(c1)OC(F)(F)O2 [Example 86, N-(2,2-difluorobenzo[d] [1,3]dioxol-5-yl)-N-ethyl-2-(5-(2-methoxyethyl)-1-oxo-1H-pyridazino[4,5-b]indol-2(5H)-yl)acetamide] | > 5.00
3 | CCN(C(=O)Cn1ncc2c(c1=O)c1ccccc1n2Cc1ccccc1)c1ccc2c(c1)OC(F)(F)O2 [Example 87, 2-(5-benzyl-1-oxo-1H-pyridazino[4,5-b]indol-2(5H)-yl)-N-(2,2-difluorobenzo[d][1,3]dioxol-5-yl)-N-ethylacetamide] | > 5.00
4 | CCN(C(=O)Cn1ncc2c(c1=O)c1ccccc1n2CCC(=O)OC)c1ccc2c(c1)OC(F)(F)O2 [Example 88, methyl 3-(2-(2-((2,2-difluorobenzo[d][1,3]dioxol-5-yl)(ethyl)amino)-2-oxoethyl)-1-oxo-1H-pyridazino[4,5-b]indol-5(2H)-yl)propanoate] | > 5.00
5 | CCN(C(=O)Cn1ncc2c(c1=O)c1ccccc1n2Cc1cccc(OC)c1)c1ccc2c(c1)OC(F)(F)O2 [Example 89, N-(2,2-difluorobenzo[d] [1,3]dioxol-5-yl)-N-ethyl-2-(5-(3-methoxybenzyl)-1-oxo-1H-pyridazino[4,5-b]indol-2(5H)-yl)acetamide] | 4.70 to 5.00
6 | CCN(C(=O)Cn1ncc2c(c1=O)c1ccccc1n2Cc1ccc(OC)cc1)c1ccc2c(c1)OC(F)(F)O2 [Example 90, N-(2,2-difluorobenzo[d][1,3]dioxol-5-yl)-N-ethyl-2-(5-(4-methoxy-benzyl)-1-oxo-1H-pyridazino[4,5-b]indol-2(5H)-yl)acetamide] | 4.70 to 5.00
7 | CCN(C(=O)Cn1ncc2c(c1=O)c1ccccc1n2CCCOC)c1ccc2c(c1)OC(F)(F)O2 [Example 91, N-(2,2-difluorobenzo[d] [1,3]dioxol-5-yl)-N-ethyl-2-(5-(3-methoxypropyl)-1-oxo-1H-pyridazino[4,5-b]indol-2(5H)-yl)acetamide] | > 5.00
8 | CCN(C(=O)Cn1ncc2c(c1=O)c1ccccc1n2CCC#N)c1ccc2c(c1)OC(F)(F)O2 [Example 92, 2-(5-(2-cyanoethyl)-1-oxo-1H-pyridazino[4,5-b]indol-2(5H)-yl)-N-(2,2-difluorobenzo[d][1,3]dioxol-5-yl)-N-ethylacetamide] | > 5.00
9 | CCN(C(=O)Cn1ncc2c(c1=O)c1ccccc1n2CC#N)c1ccc2c(c1)OC(F)(F)O2 [Example 93, 2-(5-(cyanomethyl)-1-oxo-1H-pyridazino[4,5-b]indol-2(5H)-yl)-N-(2,2-difluorobenzo[d][1,3]dioxol-5-yl)-N-ethylacetamide] | > 5.00
10 | CCN(C(=O)Cn1ncc2c(c1=O)c1ccccc1n2Cc1cccnc1)c1ccc2c(c1)OC(F)(F)O2 [Example 94, N-(2,2-difluorobenzo[d][1,3]dioxol-5-yl)-N-ethyl-2-(1-oxo-5-(pyridin-3-ylmethyl)-1H-pyridazino[4,5-b]indol-2(5H)-yl)acetamide] | > 5.00
11 | CCN(C(=O)Cn1ncc2c(c1=O)c1ccccc1n2Cc1ccccc1C#N)c1ccc2c(c1)OC(F)(F)O2 [Example 95, 2-(5-(2-cyanobenzyl)-1-oxo-1H-pyridazino[4,5-b]indol-2(5H)-yl)-N-(2,2-difluorobenzo[d][1,3]dioxol-5-yl)-N-ethylacetamide] | > 5.00
12 | CCN(C(=O)Cn1ncc2c(c1=O)c1ccccc1n2Cc1cccc(C#N)c1)c1ccc2c(c1)OC(F)(F)O2 [Example 96, 2-(5-(3-cyanobenzyl)-1-oxo-1H-pyridazino[4,5-b]indol-2(5H)-yl)-N-(2,2-difluorobenzo[d][1,3]dioxol-5-yl)-N-ethylacetamide] | > 5.00
13 | CCN(C(=O)Cn1ncc2c(c1=O)c1ccccc1n2Cc1ccncc1)c1ccc2c(c1)OC(F)(F)O2 [Example 97, N-(2,2-difluorobenzo[d] [1,3]dioxol-5-yl)-N-ethyl-2-(1-oxo-5-(pyridin-4-ylmethyl)-1H-pyridazino[4,5-b]indol-2(5H)-yl)acetamide] | > 5.00
14 | Cc1ccc(-n2nc(C(=O)N3CCCCC3)c3c4ccccc4n(C)c3c2=O)cc1 [Example 101, 5-methyl-1-(piperidine-1-carbonyl)-3-p-tolyl-3H-pyridazino[4,5-b]indol-4(5H)-one] | > 5.00
15 | CCN(C(=O)c1nn(-c2ccccc2)c(=O)c2c1c1ccccc1n2C)c1ccncn1 [Example 102, N-ethyl-5-methyl-4-oxo-3-phenyl-N-(pyrimidin-4-yl)-4,5-dihydro-3H-pyridazino[4,5-b]indole-1-carboxamide] | > 5.00
16 | Cc1ccc(-n2nc(C(=O)N(c3ccccc3)C(C)C)c3c4ccccc4n(C)c3c2=O)cc1 [Example 103, N-isopropyl-5-methyl-4-oxo-N-phenyl-3-(p-tolyl)-4,5-dihydro-3H-pyridazino[4,5-b]indole-1-carboxamide] | > 5.00
17 | Cc1ccc(-n2nc(C(=O)N(c3ccccc3)C3CC3)c3c4ccccc4n(C)c3c2=O)cc1 [Example 104, N-cyclopropyl-5-methyl-4-oxo-N-phenyl-3-(p-tolyl)-4,5-dihydro-3H-pyridazino[4,5-b]indole-1-carboxamide] | > 5.00
18 | Cc1ccc(-n2nc(C(=O)N(CC#N)c3ccccc3)c3c4ccccc4n(C)c3c2=O)cc1 [Example 105, N-(cyanomethyl)-5-methyl-4-oxo-N-phenyl-3-(p-tolyl)-4,5-dihydro-3H-pyridazino[4,5-b]indole-1-carboxamide] | > 5.00

More lines, now with the values ahead:

Row | pEC50 | Structure (SMILES)
19 | > 5.00 | CCN(CC)C(=O)c1nn(-c2ccc(C)cc2)c(=O)c2c1c1ccccc1n2C [Example 106, N,N-diethyl-5-methyl-4-oxo-3-(p-tolyl)-4,5-dihydro-3H-pyridazino[4,5-b]indole-1-carboxamide]
20 | > 5.00 | CCN(C(=O)c1nn(-c2ccc(C)cc2)c(=O)c2c1c1ccccc1n2C)c1ccccn1 [Example 107, N-ethyl-5-methyl-4-oxo-N-(pyridin-2-yl)-3-(p-tolyl)-4,5-dihydro-3H-pyridazino[4,5-b]indole-1-carboxamide]
21 | > 5.00 | CCN(C(=O)c1nn(-c2ccc(C)cc2)c(=O)c2c1c1ccccc1n2C)c1cccnc1 [Example 108, N-ethyl-5-methyl-4-oxo-N-(pyridin-3-yl)-3-(p-tolyl)-4,5-dehydro-3H-pyridazino[4,5-b]indole-1-carboxamide]
22 | > 5.00 | CCN(C(=O)c1nn(-c2ccccc2)c(=O)c2c1c1ccccc1n2C)c1ccncc1 [Example 109, N-ethyl-5-methyl-4-oxo-3-phenyl-N-(pyridin-4-yl)-4,5-dihydro-3H-pyridazino[4,5-b]indole-1-carboxamide]
23 | > 5.00 | Cc1ccc(-n2nc(C(=O)N3CCCc4ccccc43)c3c4ccccc4n(C)c3c2=O)cc1 [Example 110, 5-methyl-1-(1,2,3,4-tetrahydroquinoline-1-carbonyl)-3-(p-tolyl)-3H-pyridazino[4,5-b]indol-4(5H)-one]
24 | > 5.00 | CCN(C(=O)c1nn(-c2ccc(C)cc2)c(=O)c2c1c1ccccc1n2C)C1CC1 [Example 111, N-cyclopropyl-N-ethyl-5-methyl-4-oxo-3-(p-tolyl)-4,5-dihydro-3H-pyridazino[4,5-b]indole-1-carboxamide]
25 | > 5.00 | Cc1ccc(-n2nc(C(=O)N3CCN(Cc4ccccc4)CC3)c3c4ccccc4n(C)c3c2=O)cc1 [Example 112, 1-(4-benzylpiperazine-1-carbonyl)-5-methyl-3-(p-tolyl)-3H-pyridazino[4,5-b]indol-4(5H)-one]
26 | < 4.70 | CCN(C(=O)c1nn(-c2ccccc2)c(=O)c2c1c1ccccc1n2C)c1ncccn1 [Example 113, N-ethyl-5-methyl-4-oxo-3-phenyl-N-(pyrimidin-2-yl)-4,5-dihydro-3H-pyridazino[4,5-b]indole-1-carboxamide]
27 | < 4.70 | Cc1ccc(-n2nc(C(=O)N(CC(=O)O)c3ccccc3)c3c4ccccc4n(C)c3c2=O)cc1 [Example 114, 2-(5-methyl-4-oxo-N-phenyl-3-(p-tolyl)-4,5-dihydro-3H-pyridazino[4,5-b]indole-1-carboxamido) acetic acid]
28 | 4.70 to 5.00 | CCN(C(=O)c1nn(-c2ccccc2)c(=O)c2c1c1ccccc1n2C)c1ncnc2c1cnn2C [Example 115, N-ethyl-5-methyl-N-(1-methyl-1H-pyrazolo[3,4-d]pyrimidin-4-yl)-4-oxo-3-phenyl-4,5-dihydro-3H-pyridazino[4,5-b]indole-1-carboxamide]
29 | > 5.00 | CCN(C(=O)c1nn(-c2ccccn2)c(=O)c2c1c1ccccc1n2C)c1ccccc1 [Example 118, N-ethyl-5-methyl-4-oxo-N-phenyl-3-(pyridin-2-yl)-4,5-dihydro-3H-pyridazino[4,5-b]indole-1-carboxamide]
30 | > 5.00 | CCN(C(=O)c1nn(-c2cccnc2)c(=O)c2c1c1ccccc1n2C)c1ccccc1 [Example 119]
31 | > 5.00 | CCN(C(=O)c1nn(-c2ccncc2)c(=O)c2c1c1ccccc1n2C)c1ccccc1 [Example 120, N-ethyl-5-methyl-4-oxo-N-phenyl-3-(pyridin-4-yl)-4,5-dihydro-3H-pyridazino[4,5-b]indole-1-carboxamide]
32 | > 5.00 | CCN(C(=O)c1nn(-c2nccs2)c(=O)c2c1c1ccccc1n2C)c1ccccc1 [Example 121, N-ethyl-5-methyl-4-oxo-N-phenyl-3-(thiazol-2-yl)-4,5-dihydro-3H-pyridazino[4,5-b]indole-1-carboxamide]
33 | 4.70 to 5.00 | CCN(C(=O)c1nn(-c2ncccn2)c(=O)c2c1c1ccccc1n2C)c1ccccc1 [Example 122, N-ethyl-5-methyl-4-oxo-N-phenyl-3-(pyrimidin-2-yl)-4,5-dihydro-3H-pyridazino[4,5-b]indole-1-carboxamide]
